Experiments:
Type in all cases: physicochemical
[1] = Kinetics of IChU reactions with reference electrophile (mpa)2CH+ (stopped-flow photometry); conditions: E = −5.89, dichloromethane, 20 °C
Text: (§1) In order to systematically investigate the influence of the chalcogen atom on the nucleophilicity of DHPB‐derived IChUs (Ch = O, S, Se, and Te), we utilized Mayr's benzhydrylium methodology.^[ [107] ^]
(§2) In accordance with observations in previous studies on ITU reactivity,^[ [119] ^] mixing the strongly colored benzhydrylium tetrafluoroborates 18 with excess IChUs in dichloromethane gave rise to decolorization of the solutions due to the formation of isochalcogenouronium tetrafluoroborates 19, which are colourless (Figure 3a). […] To establish pseudo first‐order conditions and to secure a sufficient decay of the benzhydrylium's absorbance during the course of the reactions, the IChUs were employed at higher concentrations than the benzhydrylium ions. First‐order rate constants k obs (s^−1) were determined by fitting the mono‐exponential decay function in Equation (2) to the decreasing absorbance (A) of 18 during their reaction with the IChUs as exemplified for the reaction of ITeU3 with (ind)2CH^+ in Figure 3b. […]
(§3) First‐order rate constants k obs correlated linearly with the IChU concentration. Therefore, second‐order rate constants k 2 (L mol^−1 s^−1) were determined from the slope of the linear regression curves (Figure 3c ^[ [95] ^]). […]

[2] = Kinetics of IChU reactions with reference electrophile (thq)2CH+ (stopped-flow photometry); conditions: E = −8.22, dichloromethane, 20 °C
Text: as §1, §2, §3

[3] = Lewis basicity LB from equilibrium constants (photometric titrations) with benzhydrylium ions as reference Lewis acids; set-up: key: Mayr Lewis basicity scale; LB from K and reference LA via Eq. (3); conditions: in dichloromethane, 20 °C
Protocol: (a) Lewis basicity. Previously, the Mayr group established a series of benzhydrylium ions as C‐centered Lewis acid references to construct a Lewis basicity scale in dichloromethane. Substituting experimentally determined equilibrium constants K (at 20 °C) and reported Lewis acidities LA for the benzhydrylium ions (Figure 7) in Equation (3) enables one to calculate the Lewis basicity (LB) of a Lewis base.^[ [121], [127] ^] (3) lgK(20^∘C)=LA+LB
The reversibility of the formation of adducts 19 (Equation (4)), which was also apparent in the kinetics by significant positive intercepts in several of the k obs versus [IChU] plots (Supporting Information), provided the opportunity to probe the thermodynamics of the C‐N bond‐forming reactions of IChUs with benzhydrylium ions as the reference Lewis acids in more detail.^[ [95] ^] (4) IChU+Ar2CH^+(18)⇌Ar2CH-IChU^+(19)
By assuming the validity of the Beer–Lambert law for dilute solutions, equilibrium constants K (L mol^−1) were determined in photometric titrations according to Equation (5) from the initial absorbance (A 0) of the benzhydrylium ions 18 and the absorbance at equilibrium (A, Equation 5), that is, after addition of a certain amount of an IChU.^[ [109], [110], [111], [112], [113], [114], [115], [119] ^] (5) K=[19]/[18]IChU=A0−A/AIChU

[4] = Kinetics of IChU reactions with reference electrophile (lil)2CH+ (stopped-flow photometry); conditions: E = −10.04, dichloromethane, 20 °C
Text: as §1, §2, §3

[5] = Kinetics of IChU reactions with reference electrophile (mor)2CH+ (stopped-flow photometry); conditions: E = −5.53, dichloromethane, 20 °C
Text: as §1, §2, §3

[6] = Kinetics of IChU reactions with reference electrophile (dpa)2CH+ (stopped-flow photometry); conditions: E = −4.72, dichloromethane, 20 °C
Text: as §1, §2, §3

| Compound | Second-order rate constant k2 exptl [1] [M⁻¹ s⁻¹] | Second-order rate constant k2 exptl [2] [M⁻¹ s⁻¹] | Lewis basicity LB [3] | Second-order rate constant k2 exptl [4] [M⁻¹ s⁻¹] | Second-order rate constant k2 exptl [5] [M⁻¹ s⁻¹] | Second-order rate constant k2 exptl [6] [M⁻¹ s⁻¹] |
| --- | --- | --- | --- | --- | --- | --- |
| c1ccc2c(c1)[Se]C1=NCCCN12 [ISeU3, SeDHPB] | 1.16e+06 | 38100 | 15.54 | 1980 | – | – |
| c1ccc2c(c1)OC1=NCCCN12 [IU3, ODHPB] | 129000 | – | 13.66 | – | 185000 | 896000 |
